One data set deals with immune system. The data set can be described thus: Tests to establish immunomodulatory properties (overall statement). As to conditions: normal antigen stimulated mice. The data set is classed as in vivo. The protocol: The following tests were conducted on various compounds within the scope of this invention to establish their immunodmodulatory properties. […] Conversely, at higher dosage levels, e.g. about 200 to 600 mg/kg body weight they function as immunoinhibitors.
The tests used to establish immunostimulation were:

In data set [1] the test system is IgM plaque-forming cells to sheep erythrocytes. The experiment in a line: Immunomodulation panel: IgM plaque-forming response to SRBC. Type of data set: in vivo, C57BL/6J mice. On the set-up: Anti-SRBC Plaque Forming Cells: unit not given here. The protocol: Daily intraperitoneal injections of KCPBL were administered to normal animals and immunological responsiveness to mitogens and specific antigen evaluated.
Inbred C57BL/6J mice were obtained from Jackson Laboratories, Bar Harbor, Me. The animals were held for one week before use in an experiment. Prior to commencement of a study, the animals were placed into groups and weighed.
Doses and schedule--Doses were selected to bracket the range generally known to be immunostimulatory in past experiments, 1, 10, and […] daily for four days.
Immunization--All animals except for sham controls were injected with 0.5 ml of a 2% suspension of sheep erythrocyte on day zero. This occurred two days following any pretreatment and the day before the initiation of study drug administration.
Sacrifice--Animals were sacrificed by cervical dislocation on day five. The spleens were surgically removed and the following immunological evaluations conducted.
As an assessment of immunopathology in the above screening test panel, the cellularity of the spleen was evaluated by determination of the total number of splenocytes harvested. Humoral-mediated immunity was measured by enumerating IgM plaque-forming cells to the T-dependent antigen sheep erythrocytes. Cell-mediated immunity was evaluated as described above by determination of the ability of the splenocytes to produce the lymphokine interleukin-2 in response to stimulation by the mitogen concanavalin-A. Another measurement of cell-mediated immunity was the responsiveness of the splenic lymphocytes to the mitogens concanavalin-A (Con-A); phytohemagglutinin (PHA) and pokeweed mitogen (PWM) in the lymphocyte blastogenesis assay. In the latter test, the activation and proliferation of the lymphocytes to the mitogens represents the capability of the cells to sequentially pass from G0 to G1 and the S phse of the cell cycle. The responsiveness of the cells was measured by the uptake of radiolabeled 14C-thymidine.

A further data set relates to IL-2. The data set can be described thus: Immunotoxicity--Multi-dose: IL-2 induction. Type of data set: in vivo, mice. Here is the method:
(§1) The study incorporated five treatment groups into its design: group 1, sham intravenous control; group 2, 100 mg/kg/day perorally; group 3, 1000 mg/kg/day intravenously; group 4, […], and, group 5, 100 mg/kg/day intravenously. Mice were administered KCPBL daily for a total of fourteen days via the oral (0.2 ml of a 147.5 mg/ml solution or a 29.5 mg/ml solution by gavage) and intravenous route (0.2 ml of 147.5 mg/ml solution or a 29.5 mg/ml solution by tail vein) to achieve a dose of 100 or 1000 mg/kg, respectively. The test dose was prepared fresh daily and dissolved in sterile non-pyrogenic saline. On the fifteenth day the mice were weighed, sacrificed, and the spleens, lungs, livers, kidneys and thymuses removed. These organs were weighed and, except for the spleens, the formalin-fixed organs were analyzed by a veterinary pathologist. Only two randomly-selected sets of animal organs per treatment group were histopathologically evaluated since the remaining three animals were used to isolate splenic lymphocytes for use in cellular immunoassays.
(§2) A leukocyte differential was obtained on peripheral blood samples and spleen cell counts (performed with Coulter Counter), and an IL-2 induction assessment as well as standard lymphocyte stimulation assays using PHA, CON-A and PWM conducted.
The individual spleens of three mice from control and test groups were processed to isolate lymphocytes and the protocols for lymphocyte blastogenesis, IL-2 induction and assay were performed. The remaining two mice in each group were sacrificed and their lungs, liver, kidney, and spleen were fixed in formalin and sent to AnMed Biosafe for histopathologic examination.

For another data set, the system named is CD-1 male mice. The data set can be described thus: Oral Toxicity, single high dose in mice. The data set is classed as in vivo. As to conditions: 5000 mg/kg p.o., 14 days. The protocol:
The objective of this experiment was to observe the clinical effects associated with the peroral administration of a single high dose of KCPBL to mice.
The test animals were CD-1 male mice.
Nine animals constituted the active peroral treatment group; eight animals were used in the vehicle control group.
Each mouse received a single 0.2 ml peroral (p.o.) dose using a 1.0 cc syringe fitted with a curved gavage needle.
Survival statistics were determined after the fourteenth day. All surviving mice were sacrificed on the fifteenth day, selected organs removed and weighed on a AE 100 Mettler balance and then fixed in formalin for histopathologic examination.

The nature of data set [2]: Pharmacokinetics of 3H-KCPBL in mice, plasma levels. Type of data set: in vivo. As to conditions: intravenous, mouse, through 6 hours. Here is the method: The objectives of these tests were to evaluate the pharmacokinetics of radiolabeled KCPBL when administered either perorally or intravenously to mice.
3H-KCPBL was prepared from the pure drug substance KCPBL by an exchange procedure using high specific activity tritiated water. The product was purified by reverse phase high performance liquid chromatography and then freeze-dried. Analysis was carried out on ^3 H-KCPBL reconstituted in water. Specific activity was not less than 185 GBg/mmol or 5 Ci/mmol and the molecular weight of the product is 258. HPLC analysis for purity was performed using a Zorbax C8 column (25 cm×4.6) eluting with water: acetonitrile (930:70).
In the mouse studies, 3H-KCPBL was dissolved in sterile pyrogen-free saline containing […] of non-radiolabeled KCPBL. The final concentration of the test article in an injection volume of 0.1 ml was 66.6 mcCi. One tenth ml was administered intravenously for plasma level and tissue biodistribution studies. Peroral dosages were prepared in a manner consistent with this approach.
Mice were given intravenous doses of 3H-KCPBL to evaluate its biodistribution in this laboratory animal model.

The next data set relates to splenocytes. The data set can be described thus: Immunotoxicity--Multi-dose: total spleen cell counts (Coulter Counter). Type of data set: in vivo, mice. The protocol: The immunotoxicological potential of KCPBL was evaluated in this experiment in which the study drug was administered to CD-1 mice for fourteen days (100 or 1000 mg/kg/day), either perorally (by gavage) or intravenously (tail vein). On the fifteenth day, the mice were weighed and sacrificed. The spleen, lungs, liver, kidneys and thymus were removed from each animal, fixed in formalin and histopathologically evaluated. In addition, a differential white blood cell count was obtained for a peripheral blood sample as well as the following tests performed: spleen cell counts (performed with Coulter Counter) and lymphocyte stimulation assays using PHA, CON-A and PWM techniques.
as §1, §2

The structures appear in SMILES notation.

Turning to `O=C1CCC(C2(O)C(=O)OC3C(O)COC32O)C1` (centres unmarked) [KCPBL], the “immunostimulatory activity on T-helper (Th) mediated lymphocyte functions” value with immune system is reported as “demonstrated an immunostimulatory activity on T-helper (Th) mediated lymphocyte functions”. The “PFC increase, significance” value is “values higher than the control group but the difference was not statistically significant” in data set [1] (1 mg/kg); “A significant increase in PFC” in data set [1] (100 and 10 mg/kg). For the same compound, the “Anti-SRBC Plaque Forming Cells” value in data set [1] (1.0 mg/kg i.p.) was found to be 192.8 ± 59. Moreover, the IL-2 in the data set on IL-2 (100 mg/kg IV (group 5)) is 41.15 HMU/MI; in the data set on IL-2 (100 mg/kg P.O. (group 4)), 44.81 ± 20.8 HMU/MI; in the data set with IL-2 (1000 mg/kg IV (group 3)), 18.12 ± 10.50 HMU/MI; with IL-2 (1000 mg/kg P.O. (group 2)), 21.11 ± 13.69 HMU/MI. The IL-2 production entry in the data set on IL-2 (treated vs sham-injected controls) was “comparable”. For the same compound, the deaths result was “One mouse in the KCPBL group died on the 12th day” with CD-1 male mice and “Only one animal died” in the data set with CD-1 male mice (listed as BL-012). In addition, in data set [2], the serum level profile result was “immediate peak serum drug level followed by a steep decline”. For the same compound, the “Total Splenocytes” value in the data set on splenocytes (100 mg/kg IV (group 5)) is recorded as 4.03 ± 0.33 × 10^7 Cells; with splenocytes (100 mg/kg P.O. (group 4)), 4.15 ± 0.18 × 10^7 Cells; in the data set with splenocytes (1000 mg/kg IV (group 3)) it was 3.12 ± 0.67 × 10^7 Cells; with splenocytes (1000 mg/kg P.O. (group 2)), 3.73 ± 0.30 × 10^7 Cells. Also, the “total spleen cell counts, significance” value with splenocytes (treated vs control) is reported as “not statistically significantly different”.

These data come from patent US5098933A, “Pharmaceutically useful Michael addition products of unsaturated aldehydes and ketones and ascorbic acid” (Theracel Corporation, priority 1990, dated 1992).
